In this test the test system is production of IL-17 in mouse splenocytes stimulated by recombinant mouse interleukin-23. Description: Production of IL-17 induced when mouse splenocytes were stimulated by rm-IL-23 (ELISA). The class given is cell-based. To be noted: Splenocyte, inhibition of IL-17 production, rm-IL-23 1 nmol/L, 72 hours. The procedure: Effect on Production of IL-17 Induced when Mouse Splenocytes were Stimulated by Recombinant Mouse Interleukin-23 (rm-IL-23)
RPMI1640 media (Sigma-Aldrich) were used as a medium, to which 50 units/mL penicillin G potassium/50 μg/mL streptomycin (Gibco) and […] 2-mercaptoethanol (Sigma-Aldrich) were added, and then thereto was added 10% of fetal calf serum (FCS; Cell Culture Technology) which was treated at 56° C. for 30 minutes to be inactivated, and the mixture was used in the Test. The test compound was dissolved in dimethylsulfoxide and then diluted with 10% FCS-containing RPMI1640 medium to a desired concentration to be used. The spleens were aseptically taken out from 6 to 7 week-old male DBA/1J mice (Charles River Japan, Inc.) and a single cell suspension of splenocytes was prepared, which was hemolyzed by hypotonic treatment with a mixed solution of 0.83% aqueous solution of ammonium chloride and Tris-HCl buffer of pH 7.65 (9:1). A cell suspension prepared by using 10% FCS-containing RPMI1640 medium was added to a flat-bottomed 96 well microtestplate (Coaster) at 2×10^5 cells/well. Thereto were added test compounds and rm-IL-23 (R&D systems) were diluted with a medium to 1 to 1,000 nmol/L and 1 nmol/L of the final concentration, respectively, and the mixture was cultured at 37° C., 5% carbon dioxide and 95% air for 72 hours. After completion of the culture, culture supernatant was sampled and production amounts of IL-17 therein were determined by ELISA method. After sampling the supernatant, WST-8 (Seikagaku Corporation) was added at 10 μl/well and cultured at 37° C., 5% carbon dioxide and 95% air for 4 hours. Then, absorbance (O.D.: Optical Density) at 450 nm was measured by a microplate reader and the value was adopted as an index of cell survivability. An inhibition rate was calculated according to the following formula on the basis of an average of production amounts of IL-17 and O.D. values of the well containing a test compound of each concentration. Inhibition (%)=(1−(Average value of well with addition of test compound)/(Average value of well without addition of test compound))×100
Based on the dose-response curve obtained by plotting the inhibition rate in the longitudinal axis and the concentration in the horizontal axis, the concentration of the compound which inhibits the level to 50% of the value of the control group (IC50) (nmol/L) was determined by linear regression analysis.

As a reminder, the IC50 is the point on the concentration scale where inhibition reaches its midpoint. For the compound `Cc1ccc(-n2ncc(C(=O)Nc3cnc(N4CCC(CC(C)(C)O)CC4)c(C)c3)c2C)nc1` [Example 57, N-{6-[4-(2-hydroxy-2-methylpropyl)piperidin-1-yl]-5-methylpyridin-3-yl}-5-methyl-1-(5-methylpyridin-2-yl)-1H-pyrazole-4-carboxamide], the IC50 came to 36.7 nM.

Consider `Cc1cc(NC(=O)c2cnn(-c3ccc(F)cc3)c2C)cnc1N1CCC(C(C)(C)O)CC1` [Example 54, 1-(4-fluorophenyl)-N-{6-[4-(1-hydroxy-1-methylethyl)piperidin-1-yl]-5-methylpyridin-3-yl}-5-methyl-1H-pyrazole-4-carboxamide], for which the IC50 came to 51 nM.

On to `Cc1c(C(=O)Nc2cnc(N3CCC(=O)CC3)c(C#N)c2)cnn1-c1ccc(Cl)cc1` [Example 29, 1-(4-chlorophenyl)-N-[5-cyano-6-(4-oxopiperidin-1-yl)pyridin-3-yl]-5-methyl-1H-pyrazole-4-carboxamide], for which the IC50 was determined as 168 nM.

For the compound `Cc1cc(NC(=O)c2cnn(-c3ncc(Cl)cc3Cl)c2C)cnc1N1CCC(C(C)(C)F)CC1` [Example 48, 1-(3,5-dichloropyridin-2-yl)-N-{6-[4-(1-fluoro-1-methylethyl)piperidin-1-yl]-5-methylpyridin-3-yl}-5-methyl-1H-pyrazole-4-carboxamide], the IC50 worked out at 56.4 nM.

Regarding `Cc1cc(NC(=O)c2cnn(-c3ccc(C(F)(F)F)cc3)c2C)cnc1N1CCC(C(C)(C)O)CC1` [Example 61, N-{6-[4-(1-hydroxy-1-methylethyl)piperidin-1-yl]-5-methylpyridin-3-yl}-5-methyl-1-[4-(trifluoromethyl)phenyl]-1H-pyrazole-4-carboxamide], the IC50 was 19.4 nM.

In the case of `Cc1cc(NC(=O)c2cnn(-c3ccc(C(F)(F)F)cn3)c2C)cnc1N1CCC(C(C)(C)O)CC1` [Example 62, N-{6-[4-(1-hydroxy-1-methylethyl)piperidin-1-yl]-5-methylpyridin-3-yl}-5-methyl-1-[5-(trifluoromethyl)pyridin-2-yl]-1H-pyrazole-4-carboxamide], the IC50 was determined as 17 nM.

For `Cc1c(C(=O)Nc2cnc(N3CCC(CCO)CC3)c(C3CC3)c2)cnn1-c1ccc(Cl)cc1` [Example 42, 1-(4-chlorophenyl)-N-{5-cyclopropyl-6-[4-(2-hydroxyethyl)piperidin-1-yl]pyridin-3-yl}-5-methyl-1H-pyrazole-4-carboxamide], the IC50 is 106 nM.

With `Cc1cc(NC(=O)c2cnn(-c3ccccc3)c2C)cnc1N1CCC(CC(C)(C)O)CC1` [Example 50, N-{6-[4-(2-hydroxy-2-methylpropyl)piperidin-1-yl]-5-methylpyridin-3-yl}-5-methyl-1-phenyl-1H-pyrazole-4-carboxamide], the IC50 was determined as 54.1 nM.

In the case of `Cc1cc(NC(=O)c2cnn(-c3ccc(F)cn3)c2C)cnc1N1CCC(CC(C)(C)O)CC1` [Example 60, 1-(5-fluoropyridin-2-yl)-N-{6-[4-(2-hydroxy-2-methylpropyl)piperidin-1-yl]-5-methylpyridin-3-yl}-5-methyl-1H-pyrazole-4-carboxamide], the IC50 was determined as 30.4 nM.

Consider `Cc1c(C(=O)Nc2cnc(N3CCC(O)CC3)c(Cl)c2)cnn1-c1ccc(Cl)cc1` [Example 36, N-[5-chloro-6-(4-hydroxypiperidin-1-yl)pyridin-3-yl]-1-(4-chlorophenyl)-5-methyl-1H-pyrazole-4-carboxamide], for which the IC50 was 142 nM.

For the compound `Cc1cc(NC(=O)c2cnn(-c3ccc(C(F)(F)F)cn3)c2C)cnc1N1CCC(C(C)O)CC1` (stereo not shown) [Example 55, N-{6-[4-(1-hydroxyethyl)piperidin-1-yl]-5-methylpyridin-3-yl}-5-methyl-1-[5-(trifluoromethyl)pyridin-2-yl]-1H-pyrazole-4-carboxamide], the IC50 worked out at 49.6 nM.

`Cc1cc(NC(=O)c2cnn(-c3ccc(Cl)cn3)c2C)cnc1N1CCC(C(C)(C)O)CC1` [Example 58, 1-(5-chloropyridin-2-yl)-N-{6-[4-(1-hydroxy-1-methylethyl)piperidin-1-yl]-5-methylpyridin-3-yl}-5-methyl-1H-pyrazole-4-carboxamide]: the IC50 was 33 nM.

As for `Cc1ccc(-n2ncc(C(=O)Nc3cnc(N4CCC(C(C)(C)O)CC4)c(C)c3)c2C)cc1` [Example 56, N-{6-[4-(1-hydroxy-1-methylethyl)piperidin-1-yl]-5-methylpyridin-3-yl}-5-methyl-1-(4-methylphenyl)-1H-pyrazole-4-carboxamide], the 50% inhibitory concentration (IC50) was determined as 44.4 nM.

For `Cc1cc(NC(=O)c2c[nH]c(-c3ccc(C(F)(F)F)cc3)n2)cnc1N1CCC(C(C)(C)O)CC1` [Example 75, N-{6-[4-(1-hydroxy-1-methylethyl)piperidin-1-yl]-5-methylpyridin-3-yl}-2-[4-(trifluoromethyl)phenyl]-1H-imidazole-4-carboxamide], the IC50 was 109 nM.

In the case of `Cc1cc(NC(=O)c2ccn(-c3ccc(C#N)cn3)c2)cnc1N1CCC(C(C)(C)O)CC1` [Example 46, 1-(5-cyanopyridin-2-yl)-N-{6-[4-(1-hydroxy-1-methylethyl)piperidin-1-yl]-5-methylpyridin-3-yl}-1H-pyrrole-3-carboxamide], the IC50 was determined as 60.8 nM.

As to `Cc1cc(NC(=O)c2cnn(-c3ccc(C4CC4)cn3)c2C)cnc1N1CCC(CC(C)(C)O)CC1` [Example 64, 1-(5-cyclopropylpyridin-2-yl)-N-{6-[4-(2-hydroxy-2-methylpropyl)piperidin-1-yl]-5-methylpyridin-3-yl}-5-methyl-1H-pyrazole-4-carboxamide], the IC50 came to 12 nM.

Take `N#Cc1cc(NC(=O)c2ccn(-c3ccc(F)cc3)c2)cnc1N1CCC(CCO)CC1` [Example 37, N-{5-cyano-6-[4-(2-hydroxyethyl)piperidin-1-yl]pyridin-3-yl}-1-(4-fluorophenyl)-1H-pyrrole-3-carboxamide]: the IC50 amounted to 140 nM.

Turning to `Cc1cc(NC(=O)c2cnn(-c3ccccn3)c2C)cnc1N1CCC(CC(C)(C)O)CC1` [Example 26, N-{6-[4-(2-hydroxy-2-methylpropyl)piperidin-1-yl]-5-methylpyridin-3-yl}-5-methyl-1-(pyridin-2-yl)-1H-pyrazole-4-carboxamide], the IC50 was determined as 173 nM.

For `Cc1cc(NC(=O)c2cc(-c3ccc(Cl)cc3)cs2)cnc1N1CCC(C(C)(C)O)CC1` [Example 80, 4-(4-chlorophenyl)-N-{6-[4-(1-hydroxy-1-methylethyl)piperidin-1-yl]-5-methylpyridin-3-yl}thiophene-2-carboxamide], the IC50 is 185 nM.

As to `Cc1cc(NC(=O)c2cnn(-c3ccc(F)c(F)c3)c2C)cnc1N1CCC(C(C)O)CC1` (stereo not shown) [Example 27, 1-(3,4-difluorophenyl)-N-{6-[4-(1-hydroxyethyl)piperidin-1-yl]-5-methylpyridin-3-yl}-5-methyl-1H-pyrazole-4-carboxamide], the half-maximal inhibitory concentration (IC50) amounted to 171 nM.

Regarding `Cc1cc(NC(=O)c2cnn(-c3ccc(Cl)cc3)c2C)cnc1N1CCC(C(C)(C)O)CC1` [Example 63, 1-(4-chlorophenyl)-N-{6-[4-(1-hydroxy-1-methylethyl)piperidin-1-yl]-5-methylpyridin-3-yl}-5-methyl-1H-pyrazole-4-carboxamide], the IC50 turned out to be 15.6 nM.

With `CC(=O)OCCC1CCN(c2ncc(NC(=O)c3cnn(-c4ccc(Cl)cc4)c3C)cc2C#N)CC1` [Example 40, acetic acid [2-(1-{5-[1-(4-chlorophenyl)-5-methyl-1H-pyrazole-4-carboxamide]-3-cyanopyridin-2-yl}piperidin-4-yl)ethyl]ester], the 50% inhibitory concentration (IC50) is 116 nM.

Turning to `N#Cc1cc(NC(=O)c2cnn(-c3ccc(Cl)cc3)c2C2CC2)cnc1N1CCC(CCO)CC1` [Example 22, 1-(4-chlorophenyl)-N-{5-cyano-6-[4-(2-hydroxyethyl)piperidin-1-yl]pyridin-3-yl}-5-cyclopropyl-1H-pyrazole-4-carboxamide], the IC50 was 194 nM.

For `Cc1c(C(=O)Nc2cnc(N3CCC(CCO)CC3)c(Cl)c2)cnn1-c1ccc(Cl)cc1` [Example 74, N-{5-chloro-6-[4-(2-hydroxyethyl)piperidin-1-yl]pyridin-3-yl}-1-(4-chlorophenyl)-5-methyl-1H-pyrazole-4-carboxamide], the half-maximal inhibitory concentration (IC50) was 87.7 nM.

In the case of `Cc1cc(NC(=O)c2cnn(-c3ccc(C(F)(F)F)cc3)c2C)cnc1N1CCC(O)CC1` [Example 15, N-[6-(4-hydroxypiperidin-1-yl)-5-methylpyridin-3-yl]-5-methyl-1-[4-(trifluoromethyl)phenyl]-1H-pyrazole-4-carboxamide], the IC50 is 293 nM.

Values taken from patent US9527859B2, “Amidopyridine derivative and use thereof” (Mitsubishi Tanabe Pharma Corporation, priority 2012, dated 2016).
